From the NIST ThermoML archive (doi:10.1016/j.jct.2012.03.034)
Numbers after ± are expanded uncertainties.

Legend:
[1] = xn = mol fraction of the nth substance listed; conditions: 101 kPa, Liquid, x2 = 0; for speed of sound: Linear variable-path acoustic interferometer; for mass density: Vibrating tube method; for viscosity: dual vibrating plate viscometer, AandD Co. Ltd Model SV-10
[2] = 298.15 K, 101.33 kPa, Liquid; for speed of sound: Linear variable-path acoustic interferometer; for mass density: Vibrating tube method; for viscosity: dual vibrating plate viscometer, AandD Co. Ltd Model SV-10

| SMILES | speed of sound ([1]; 298.15 K) [m/s] | mass density ([1]; 298.15 K) [kg/m3] | viscosity ([1]; 298.15 K) [mPa·s] | speed of sound ([1]; 303.15 K) [m/s] | mass density ([1]; 303.15 K) [kg/m3] | viscosity ([1]; 303.15 K) [mPa·s] | speed of sound ([1]; 308.15 K) [m/s] | mass density ([1]; 308.15 K) [kg/m3] | viscosity ([1]; 308.15 K) [mPa·s] | speed of sound ([1]; 313.15 K) [m/s] | mass density ([1]; 313.15 K) [kg/m3] | viscosity ([1]; 313.15 K) [mPa·s] | speed of sound [2] [m/s] | mass density [2] [kg/m3] | viscosity [2] [mPa·s] |
| --- | --- | --- | --- | --- | --- | --- | --- | --- | --- | --- | --- | --- | --- | --- | --- |
| CN1CCCC1=O [N-methylpyrrolidone] + CC[NH2+]CC.O=S(=O)([O-])O | 1572 ± 2 | 1025.9 ± 0.3 | 1.66 ± 0.03 | 1552 ± 2 | 1023.74 ± 0.3 | 1.49 ± 0.03 | 1528 ± 2 | 1019.25 ± 0.3 | 1.39 ± 0.03 | 1520 ± 2 | 1014.74 ± 0.3 | 1.31 ± 0.03 | – | – | – |
| CC[NH+](CC)CC.O=S(=O)([O-])O [triethylammonium hydrogen sulfate] | – | – | – | – | – | – | – | – | – | – | – | – | 1874 ± 2 | 1142.89 ± 0.45 | 235 ± 13 |
| CN1CCCC1=O [N-methylpyrrolidone] + CC(=O)[O-].CC[NH2+]CC | 1572 ± 2 | 1025.9 ± 0.3 | 1.66 ± 0.03 | 1552 ± 2 | 1023.74 ± 0.3 | 1.49 ± 0.03 | 1528 ± 2 | 1019.25 ± 0.3 | 1.39 ± 0.03 | 1520 ± 2 | 1014.74 ± 0.3 | 1.31 ± 0.03 | – | – | – |
| CN1CCCC1=O [N-methylpyrrolidone] | – | – | – | – | – | – | – | – | – | – | – | – | 1552 ± 2 | 1025.9 ± 0.31 | 1.66 ± 0.03 |
| CC(=O)[O-].CC[NH2+]CC [diethylammonium acetate] | – | – | – | – | – | – | – | – | – | – | – | – | 1608 ± 2 | 1021.41 ± 0.32 | 16.36 ± 0.23 |
| CC[NH2+]CC.O=S(=O)([O-])O [diethylammonium hydrogen sulfate] | – | – | – | – | – | – | – | – | – | – | – | – | 1432 ± 2 | 1283.95 ± 0.61 | 34.1 ± 0.63 |
| CN1CCCC1=O [N-methylpyrrolidone] + CC(=O)O.CCN(CC)CC | 1572 ± 2 | 1025.9 ± 0.3 | 1.66 ± 0.03 | 1552 ± 2 | 1023.74 ± 0.3 | 1.49 ± 0.03 | 1528 ± 2 | 1019.25 ± 0.3 | 1.39 ± 0.03 | 1520 ± 2 | 1014.74 ± 0.3 | 1.31 ± 0.03 | – | – | – |
| CN1CCCC1=O [N-methylpyrrolidone] + CC[NH+](CC)CC.O=S(=O)([O-])O | 1572 ± 2 | 1025.9 ± 0.3 | – | 1552 ± 2 | 1023.74 ± 0.3 | – | 1528 ± 2 | 1019.25 ± 0.3 | 1.39 ± 0.03 | 1520 ± 2 | 1014.74 ± 0.3 | 1.31 ± 0.03 | – | – | – |
| CC(=O)O.CCN(CC)CC [triethylammonium acetate] | – | – | – | – | – | – | – | – | – | – | – | – | 1840 ± 2 | 1015.86 ± 0.32 | 24.14 ± 0.39 |
